Where two headings read alike, the source gives them in different places.
Columns and labels:
[1] = biological target: T1, N-terminal His-tagged TYK2 pseudokinase domain (Homo sapiens, UniProt P29597); assay: TYK2 JH2 domain SPA binding assay; details: displacement of H3 probe (20 nM), 30 min room temperature; class symbols
T1 construct: the N-terminal His-tagged TYK2 pseudokinase domain; His (N); purchased Pharmaron
Experimental: TYK2 JH2 Domain Binding Assay
After incubating at room temperature for 30 min, the inhibition was calculated by the displacement of [3H] 3 binding as determined by scintillation counting. Dose-response curves were generated to determine the concentration required to inhibit H3 probe binding by […] (IC50).

[2] = tested on: IL-23 induced STAT3 in HEK-Blue™ IL-23 cells; assay: IL-23 induced STAT3 QUANTI-Blue reporter assay in HEK-Blue IL-23 cells; type: cell-based; details: IL-23 0.1 ng/mL, SEAP levels, read-out: IL23 reporter assay (IC50 nM)
Experimental: Biological Example 2. IL-23 Induced STAT3 QUANTI-Blue in HEK-Blue™ IL-23 Cells
HEK-Blue™ IL-23 cells were prepared at 2×10^5 cells/ml for adding 5000 cell/well and incubate plates containing compounds+cells for 1 hour at 37° C. Prepare IL-23 (treatment at final conc. 0.1 ng/mL) during incubation and add 2 ul per well of prepared cytokine in media to appropriate wells. The plate is incubated for overnight at 37° C. The next day, QUANTI-Blue solution is prepared. 18 ul of QUANTI-Blue solution per well is added into a new 384-well clear flat bottom plate, then add 2 ul of induced and treated HEK-Blue cell supernatant from overnight plate. Incubate the plate at 37° C. for 2 hours and determine SEAP levels.

[3] = HEK-Blue IL-23, HEK-Blue IL-23 cells, class symbols
[4] = HEK-Blue IL-23 cells, class symbols

T1 sequence (P29597 589-875 limits assumed): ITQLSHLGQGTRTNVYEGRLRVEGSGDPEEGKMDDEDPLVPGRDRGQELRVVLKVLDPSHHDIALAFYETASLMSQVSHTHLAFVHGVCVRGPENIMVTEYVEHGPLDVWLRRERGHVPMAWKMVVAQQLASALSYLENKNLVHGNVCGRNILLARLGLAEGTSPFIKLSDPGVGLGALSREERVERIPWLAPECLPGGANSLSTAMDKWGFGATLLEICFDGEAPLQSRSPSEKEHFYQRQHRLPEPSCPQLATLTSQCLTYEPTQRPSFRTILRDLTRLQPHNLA

IC50 [1] [nM]	Structure (SMILES)	IC50 [2, 3] [nM]	IC50 [2, 4] [nM]	IC50 ([2]; HEK-Blue IL-23 cells, numeric value (control)) [nM]
10 to 100	CNc1cc(Nc2cccn(-c3ccccn3)c2=O)nc2c(C(=O)NC3CCc4conc43)cnn12 (racemic) [Compound 37]	< 10		
	[2H]C([2H])([2H])Nc1cc(Nc2cccc(N3CCCC3=O)n2)nn2c(C(=O)NC3C[C@@H]4CCOC34)cnc12 (mixture of isomers) [Compound 30]	10 to 100		
	CNc1cc(Nc2cccn(C3CC(C)(OC)C3)c2=O)nn2c(C(=O)N[C@@H]3C[C@H]4CCO[C@H]43)cnc12 (single isomer, unassigned) [Compound 92b]		10 to 100	
> 1000	CNc1cc(Nc2cccn(-c3ccccn3)c2=O)nn2c(C(=O)NC3CCC4CCOC43)cnc12 (racemic) [Compound 10b, N-(hexahydro-2H-cyclopenta[b]furan-6-yl)-8-(methylamino)-6-((2-oxo-2H-[1,2′-bipyridin]-3-yl)amino)imidazo[1,2-b]pyridazine-3-carboxamide]		≥ 1000	
10 to 100	[2H]C([2H])([2H])n1ccc(-n2cccc(Nc3cc(NC)c4ncc(C(=O)N[C@@H]5C[C@@H]5F)n4n3)c2=O)n1 [Compound 58]	10 to 100		
10 to 100	[2H]C([2H])([2H])Nc1cc(Nc2cccn(C3CC4(CCOC4)C3)c2=O)nc2c(C(=O)N[C@@H]3C[C@@H]3F)cnn12 (single isomer, unassigned) [Compound 103a]	10 to 100		
	[2H]C([2H])([2H])Nc1cc(Nc2cccn(-c3ccccn3)c2=O)nn2c(C(=O)N[C@@H]3C[C@H]4CCO[C@H]43)cnc12 [Compound 4a, N-((1R,5S,7R)-2-oxabicyclo[3.2.0]heptan-7-yl)-8-((methyl-d3)amino)-6-((2-oxo-2H-[1,2′-bipyridin]-3-yl)amino)imidazo[1,2-b]pyridazine-3-carboxamide]	10 to 100		
100 to 1000	CNc1cc(Nc2cccn(-c3ccn(C)n3)c2=O)nc2c(C(=O)N[C@@H]3C[C@H]4CCO[C@H]43)cnn12 (racemic) [Compound 51]	10 to 100		
10 to 100	CNc1cc(Nc2cccn(-c3ccccc3F)c2=O)nn2c(C(=O)N[C@@H]3C[C@H]4CCO[C@H]43)cnc12 [Compound 44]	< 10		
10 to 100	[2H]C([2H])([2H])Nc1cc(Nc2cccn(-c3ccn(C)n3)c2=O)nn2c(C(=O)N[C@@H]3C[C@@H]3F)cnc12 [Compound 57]	10 to 100		
< 10	CNc1cc(Nc2cccn(-c3ccccn3)c2=O)nn2c(C(=O)NC3CCc4scnc43)cnc12 (stereo not drawn) [Compound 9, N-(5,6-dihydro-4H-cyclopenta[d]thiazol-4-yl)-8-(methylamino)-6-((2-oxo-2H-[1,2′-bipyridin]-3-yl)amino)imidazo[1,2-b]pyridazine-3-carboxamide]	< 10		
10 to 100	[2H]C([2H])([2H])Nc1cc(Nc2cccn(-c3ccn(C([2H])([2H])[2H])n3)c2=O)nn2c(C(=O)N[C@@H]3C[C@@H]3F)cnc12 [Compound 59]	< 10		
10 to 100	CNc1cc(Nc2cccc3c2OCCC3)nc2c(C(=O)N[C@@H]3C[C@@H]4CCO[C@@H]43)cnn12 (racemic) [Compound 26]	10 to 100		
< 10	CNc1cc(Nc2cccc3c2OCCC3)nn2c(C(=O)NC(C)c3ncco3)cnc12 (single isomer, unassigned) [Compound 22b]		< 10	
10 to 100	CNc1cc(Nc2cccn(C3C[C@H]4CC[C@@H](C3)O4)c2=O)nn2c(C(=O)N[C@@H]3C[C@H]4CCO[C@H]43)cnc12 (stereo partly drawn) [Compound 13, 6-((1-(cis-8-oxabicyclo[3.2.1]octan-3-yl)-2-oxo-1,2-dihydropyridin-3-yl)amino)-N-((1R,5S,7R)-2-oxabicyclo[3.2.0]heptan-7-yl)-8-(methylamino)imidazo[1,2-b]pyridazine-3-carboxamide]	< 10		
10 to 100	[2H]C([2H])([2H])Nc1cc(Nc2cccn(C3CC4(CCOC4)C3)c2=O)nn2c(C(=O)N[C@@H]3C[C@H]4CCO[C@H]43)cnc12 (single isomer, unassigned) [Compound 96a]	10 to 100		
	[2H]C([2H])([2H])Nc1cc(Nc2cccn([C@H]3CC[C@@H](OC)CC3)c2=O)nn2c(C(=O)N[C@@H]3C[C@@H]3F)cnc12 [Compound 71]	10 to 100		
10 to 100	[2H]C([2H])([2H])Nc1cc(Nc2cccn([C@H]3CC[C@@H](OC([2H])([2H])[2H])CC3)c2=O)nn2c(C(=O)N[C@@H]3C[C@@H]3F)cnc12 [Compound 72]	< 10		
	[2H]C([2H])([2H])Nc1cc(Nc2cccn(C3CCC4(CC3)COC4)c2=O)nc2c(C(=O)N[C@@H]3C[C@H]4CCO[C@H]43)cnn12 [Compound 67]	10 to 100		

IC50 [1] [nM]	Structure (SMILES)	IC50 [2, 3] [nM]	IC50 [2, 4] [nM]	IC50 ([2]; HEK-Blue IL-23 cells, numeric value (control)) [nM]
10 to 100	CNc1cc(Nc2cccn(-c3cc(C)n(C)n3)c2=O)nn2c(C(=O)N[C@@H]3C[C@H]4CCO[C@H]43)cnc12 [Compound 55]	10 to 100		
100 to 1000	CNc1cc(Nc2cccn(-c3ccccc3F)c2=O)nn2c(C(=O)N[C@H]3C[C@@H]4CCO[C@@H]43)cnc12 [Compound 45]	≥ 1000		
10 to 100	[2H]C([2H])([2H])Nc1cc(Nc2cccn(C3CC4OCCC43)c2=O)nn2c(C(=O)N[C@@H]3C[C@H]4CCO[C@H]43)cnc12 (single isomer, unassigned) [Compound 94a]	10 to 100		
	CNc1cc(Nc2cccn(-c3ccn(C)n3)c2=O)nc2c(C(=O)NC3C[C@@H]4CCOC34)cnn12 (mixture of isomers) [Compound 50]	100 to 1000		
	CNc1cc(Nc2cccn(-c3ccn(C)n3)c2=O)nn2c(C(=O)N[C@H]3C[C@@H]4CCO[C@@H]43)cnc12 [Compound 3b, N-((1S,5R,7S)-2-oxabicyclo[3.2.0]heptan-7-yl)-6-((1-(1-methyl-1H-pyrazol-3-yl)-2-oxo-1,2-dihydropyridin-3-yl)amino)-8-(methylamino)imidazo[1,2-b]pyridazine-3-carboxamide]	100 to 1000		
	CNc1cc(Nc2cccn(-c3ccn(C)n3)c2=O)nn2c(C(=O)N[C@@H]3C[C@H]4CCO[C@H]43)cnc12 [Compound 3a, N-((1R,5S,7R)-2-oxabicyclo[3.2.0]heptan-7-yl)-6-((1-(1-methyl-1H-pyrazol-3-yl)-2-oxo-1,2-dihydropyridin-3-yl)amino)-8-(methylamino)imidazo[1,2-b]pyridazine-3-carboxamide]	< 10		
	CNc1cc(Nc2cccn(-c3cc(C)on3)c2=O)nn2c(C(=O)NC3C[C@H]4CCOC34)cnc12 (mixture of isomers) [Compound 56]	10 to 100		
	CNc1cc(Nc2cccn(-c3ccccn3)c2=O)nc2c(C(=O)NC(C)c3ncco3)cnn12 (single isomer, unassigned) [Compound 36a]		≥ 1000	
	CNc1cc(Nc2cccn(-c3nn(C)cc3F)c2=O)nn2c(C(=O)N[C@@H]3C[C@@H]3F)cnc12 [Compound 60]	10 to 100		
	CNc1cc(Nc2cccn(-c3ccn(C)n3)c2=O)nc2c(C(=O)NC(C)c3ncco3)cnn12 (racemic) [Compound 48]	10 to 100		
	[2H]C([2H])([2H])Nc1cc(Nc2cccn(C3CCC4(CC3)COC4)c2=O)nc2c(C(=O)N[C@@H]3C[C@@H]3F)cnn12 [Compound 74]	10 to 100		
	[2H]C([2H])([2H])Nc1cc(Nc2cccn(C3C[C@H]4CC[C@@H](C3)O4)c2=O)nn2c(C(=O)N[C@@H]3C[C@H]4CCO[C@H]43)cnc12 (stereo partly drawn) [Compound 78]	10 to 100		
	[2H]C([2H])([2H])Nc1cc(Nc2cccn(-c3ccccn3)c2=O)nn2c(C(=O)N[C@@H]3C[C@@H]3F)cnc12 [Compound 39]		< 10	
	[2H]C([2H])([2H])Nc1cc(Nc2cccn(-c3ccccn3)c2=O)nn2c(C(=O)N[C@H]3C[C@@H]4CCO[C@@H]43)cnc12 [Compound 4b, N-((1S,5R,7S)-2-oxabicyclo[3.2.0]heptan-7-yl)-8-((methyl-d3)amino)-6-((2-oxo-2H-[1,2′-bipyridin]-3-yl)amino)imidazo[1,2-b]pyridazine-3-carboxamide]	≥ 1000		
	CNc1cc(Nc2cccn(-c3ccccn3)c2=O)nn2c(C(=O)N[C@@H]3C[C@H]4CCO[C@H]43)cnc12 [Compound 2, N-((1R,5S,7R)-2-oxabicyclo[3.2.0]heptan-7-yl)-8-(methylamino)-6-((2-oxo-2H-[1,2′-bipyridin]-3-yl)amino)imidazo[1,2-b]pyridazine-3-carboxamide]	10 to 100		
	[2H]C([2H])([2H])NC(=O)c1nnc(NC(=O)C2CC2)cc1Nc1cccc(-c2ncn(C)n2)c1OC [BMS-986165, reference compound]			5.93
	[2H]C([2H])([2H])Nc1cc(Nc2cccn(C3C[C@H]4CC[C@@H](C3)O4)c2=O)nc2c(C(=O)N[C@@H]3C[C@H]4CCO[C@H]43)cnn12 (stereo partly drawn) [Compound 77]	10 to 100		
< 10	[2H]C([2H])([2H])Nc1cc(Nc2cccn([C@H]3CC[C@H](OC([2H])([2H])[2H])CC3)c2=O)nn2c(C(=O)N[C@@H]3C[C@H]4CCO[C@H]43)cnc12 [Compound 11, N-((1R,5S,7R)-2-oxabicyclo[3.2.0]heptan-7-yl)-6-((1-((1r,4R)-4-(methoxy-d3)cyclohexyl)-2-oxo-1,2-dihydropyridin-3-yl)amino)-8-((methyl-d3)amino)imidazo[1,2-b]pyridazine-3-carboxamide]			
